Test results: ChEMBL document CHEMBL4049450, “Discovery of 5-Azaindazole (GNE-955) as a Potent Pan-Pim Inhibitor with Optimized Bioavailability” (J Med Chem, 2017)
Values after ≈ are worked out from the molar mass of the structure shown.

Assays:
[1] = Metabolic stability in dog intestinal microsomes assessed as compound remaining after 60 mins in presence of NADPH/UDPGA; type: ADME, Canis lupus familiaris, Intestine, Microsome; settings: 1 h
[2] = Metabolic stability in cynomolgus monkey intestinal microsomes assessed as compound remaining after 60 mins in presence of NADPH/UDPGA; type: ADME, Macaca fascicularis, Intestine, Microsome; settings: 1 h
[3] = Metabolic stability in human intestinal microsomes assessed as compound remaining after 60 mins in absence of NADPH/UDPGA; type: ADME, Intestine, Microsome; settings: 1 h
[4] = Metabolic stability in dog intestinal microsomes assessed as compound remaining after 60 mins in absence of NADPH/UDPGA; type: ADME, Canis lupus familiaris, Intestine, Microsome; settings: 1 h
[5] = Metabolic stability in rat intestinal microsomes assessed as compound remaining after 60 mins in absence of NADPH/UDPGA; type: ADME, Intestine, Microsome; settings: for Stability: microsomes, 1 h; for remaining at 1 h: intestinal microsomes, read-out: Stability
[6] = Metabolic stability in mouse intestinal microsomes assessed as compound remaining after 60 mins in absence of NADPH/UDPGA; type: ADME, Intestine, Microsome; settings: 1 h
[7] = Metabolic stability in cynomolgus monkey intestinal microsomes assessed as compound remaining after 60 mins in absence of NADPH/UDPGA; type: ADME, Macaca fascicularis, Intestine, Microsome; settings: 1 h
[8] = Metabolic stability in human intestinal microsomes assessed as compound remaining after 60 mins in presence of NADPH/UDPGA; type: ADME, Intestine, Microsome; settings: 1 h
[9] = Metabolic stability in mouse intestinal microsomes assessed as compound remaining after 60 mins in presence of NADPH/UDPGA; type: ADME, Intestine, Microsome; settings: 1 h
[10] = Metabolic stability in rat intestinal microsomes assessed as compound remaining after 60 mins in presence of NADPH/UDPGA; type: ADME, Intestine, Microsome; settings: for Stability: microsomes, 1 h; for remaining at 1 h: intestinal microsomes, read-out: Stability
[11] = target: Serine/threonine-protein kinase pim-3 (Homo sapiens, UniProt Q86V86); test: Inhibition of PIM3 (unknown origin) using 5FAM-ARKRRRHPSGPPTA as substrate after 90 mins in presence of ATP by caliper microfluidic mobility shift assay
[12] = Metabolic stability in rat intestinal microsomes assessed as compound remaining after 60 mins in presence of UDPGA; type: ADME, Intestine, Microsome; settings: read-out: Stability
[13] = target: T1, Serine/threonine-protein kinase pim-1 (Homo sapiens, UniProt P11309); test: Inhibition of PIM1 (unknown origin) using 5FAM-ARKRRRHPSGPPTA as substrate after 90 mins in presence of ATP by caliper microfluidic mobility shift assay
Target sequence in this assay (P11309 whole entry): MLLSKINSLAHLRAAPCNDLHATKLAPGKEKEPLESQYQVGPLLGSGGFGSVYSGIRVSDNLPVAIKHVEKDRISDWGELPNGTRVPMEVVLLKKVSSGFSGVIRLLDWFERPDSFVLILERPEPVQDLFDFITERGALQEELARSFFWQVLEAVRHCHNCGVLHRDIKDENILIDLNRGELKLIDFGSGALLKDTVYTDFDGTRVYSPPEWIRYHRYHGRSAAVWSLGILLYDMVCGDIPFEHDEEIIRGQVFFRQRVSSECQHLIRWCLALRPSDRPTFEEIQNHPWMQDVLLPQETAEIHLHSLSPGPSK

[14] = target: Serine/threonine-protein kinase pim-2 (Homo sapiens, UniProt Q9P1W9); test: Inhibition of PIM2 (unknown origin) using 5FAM-ARKRRRHPSGPPTA as substrate after 90 mins in presence of ATP by caliper microfluidic mobility shift assay
[15] = Metabolic stability in rat intestinal microsomes assessed as compound remaining after 60 mins in presence of NADPH; type: ADME, Intestine, Microsome; settings: read-out: Stability
[16] = species: Homo sapiens; test: Inhibition of PIM in human […] cells assessed as reduction in BAD phosphorylation by Western blot analysis; type: cell-based
[17] = species: Homo sapiens; test: Inhibition of PIM in human MM1S cells assessed as reduction in S6 s235/236 phosphorylation by Western blot analysis; type: cell-based
[18] = species: Homo sapiens; test: Inhibition of PIM in human […] cells assessed as reduction in 4EBP1 phosphorylation by Western blot analysis; type: cell-based
[19] = target: T2, hERG (KCNH2) (Homo sapiens, UniProt Q12809); test: Inhibition of human ERG expressed in HEK293 cells at 10 uM after 5 mins by patch clamp assay; type: cell-based; settings: HEK293 cells that express hERG
[20] = target: Receptor-type tyrosine-protein kinase FLT3 (Homo sapiens) (UniProt P36888); test: Inhibition of FLT3 (unknown origin) at 0.1 uM
[21] = tested on: MM1.S; test: Antiproliferative activity against human MM1S cells after 72 hrs by CellTiter-Glo assay; type: functional, cell-based
[22] = Oral bioavailability in rat at 5 mg/kg; type: ADME, organism-based; settings: in vivo
[23] = species: Homo sapiens; test: Inhibition of PIM in human MM1S cells assessed as reduction in S6 s240/244 phosphorylation by Western blot analysis; type: cell-based
[24] = Clearance in rat at 1 mg/kg, iv; type: ADME, organism-based; settings: in vivo
[25] = target: T1, Serine/threonine-protein kinase pim-1; test: Inhibition of PIM1 (unknown origin) at 0.1 uM
Target sequence in this assay (P11309 whole entry, looked up): as the sequence (P11309 whole entry) above

[26] = target: Dual specificity protein kinase CLK1 (Homo sapiens) (UniProt P49759); test: Inhibition of CLK1 (unknown origin) at 0.1 uM
[27] = target: T2, hERG (KCNH2); test: Inhibition of human ERG expressed in HEK293 cells at 1 uM after 5 mins by patch clamp assay; type: cell-based; settings: HEK293 cells that express hERG
[28] = Clearance in rat liver microsomes; type: ADME, microsome
[29] = Clearance in rat hepatocytes; type: ADME, cell-based, Hepatocyte
[30] = Efflux ratio of apparent permeability in MDCK cells; settings: dog
[31] = Kinetic solubility of compound at pH 7.4; settings: buffer
[32] = Apparent permeability across apical to basolateral side in MDCK cells; type: ADME, cell-based, Canis lupus familiaris; settings: dog
[33] = tested on: Plasma; test: Drug level in rat plasma treated with N4-Phenylpyrimidine-2,4-diamine at 5 mg/kg, po; type: ADME, organism-based; settings: in vivo

Serine/threonine-protein kinase pim-2, sequence (Q9P1W9 whole entry): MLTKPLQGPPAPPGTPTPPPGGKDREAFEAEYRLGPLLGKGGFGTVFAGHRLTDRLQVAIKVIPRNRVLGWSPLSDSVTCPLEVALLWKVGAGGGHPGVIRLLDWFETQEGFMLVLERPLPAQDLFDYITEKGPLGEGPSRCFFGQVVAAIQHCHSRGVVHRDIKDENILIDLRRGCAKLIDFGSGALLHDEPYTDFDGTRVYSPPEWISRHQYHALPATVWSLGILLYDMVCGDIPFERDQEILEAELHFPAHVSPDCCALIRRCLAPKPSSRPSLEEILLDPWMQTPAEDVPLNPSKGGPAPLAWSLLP
T2 sequence (Q12809 whole entry): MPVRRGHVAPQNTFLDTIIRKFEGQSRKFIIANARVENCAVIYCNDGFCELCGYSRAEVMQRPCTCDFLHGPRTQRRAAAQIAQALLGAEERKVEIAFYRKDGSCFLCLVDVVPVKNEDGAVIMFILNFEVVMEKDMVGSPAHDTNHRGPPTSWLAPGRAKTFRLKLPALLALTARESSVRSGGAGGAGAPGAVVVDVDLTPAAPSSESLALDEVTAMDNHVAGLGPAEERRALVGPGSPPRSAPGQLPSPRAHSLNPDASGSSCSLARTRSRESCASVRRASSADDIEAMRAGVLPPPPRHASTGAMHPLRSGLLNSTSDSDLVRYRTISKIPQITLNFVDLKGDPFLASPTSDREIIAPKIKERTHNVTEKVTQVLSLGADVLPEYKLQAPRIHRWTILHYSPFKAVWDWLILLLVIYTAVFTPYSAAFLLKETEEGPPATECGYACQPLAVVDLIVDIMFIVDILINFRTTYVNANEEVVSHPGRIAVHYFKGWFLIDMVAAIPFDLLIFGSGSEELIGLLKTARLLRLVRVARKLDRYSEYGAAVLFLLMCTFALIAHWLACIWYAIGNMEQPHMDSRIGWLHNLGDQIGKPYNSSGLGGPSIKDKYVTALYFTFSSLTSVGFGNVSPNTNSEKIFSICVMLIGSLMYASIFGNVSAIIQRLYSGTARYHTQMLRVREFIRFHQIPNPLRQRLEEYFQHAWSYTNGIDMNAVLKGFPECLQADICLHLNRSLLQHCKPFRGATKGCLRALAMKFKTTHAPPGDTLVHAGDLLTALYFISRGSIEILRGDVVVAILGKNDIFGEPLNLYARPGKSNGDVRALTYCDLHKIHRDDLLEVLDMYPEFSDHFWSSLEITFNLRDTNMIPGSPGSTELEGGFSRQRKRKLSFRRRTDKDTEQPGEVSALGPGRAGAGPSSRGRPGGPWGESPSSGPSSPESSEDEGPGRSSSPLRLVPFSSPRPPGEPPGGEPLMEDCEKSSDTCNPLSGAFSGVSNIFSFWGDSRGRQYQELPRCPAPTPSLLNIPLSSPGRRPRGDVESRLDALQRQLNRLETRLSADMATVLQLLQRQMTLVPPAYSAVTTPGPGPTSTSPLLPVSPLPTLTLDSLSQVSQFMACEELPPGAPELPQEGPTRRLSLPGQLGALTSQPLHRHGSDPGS
Receptor-type tyrosine-protein kinase FLT3 (Homo sapiens), sequence (P36888 whole entry): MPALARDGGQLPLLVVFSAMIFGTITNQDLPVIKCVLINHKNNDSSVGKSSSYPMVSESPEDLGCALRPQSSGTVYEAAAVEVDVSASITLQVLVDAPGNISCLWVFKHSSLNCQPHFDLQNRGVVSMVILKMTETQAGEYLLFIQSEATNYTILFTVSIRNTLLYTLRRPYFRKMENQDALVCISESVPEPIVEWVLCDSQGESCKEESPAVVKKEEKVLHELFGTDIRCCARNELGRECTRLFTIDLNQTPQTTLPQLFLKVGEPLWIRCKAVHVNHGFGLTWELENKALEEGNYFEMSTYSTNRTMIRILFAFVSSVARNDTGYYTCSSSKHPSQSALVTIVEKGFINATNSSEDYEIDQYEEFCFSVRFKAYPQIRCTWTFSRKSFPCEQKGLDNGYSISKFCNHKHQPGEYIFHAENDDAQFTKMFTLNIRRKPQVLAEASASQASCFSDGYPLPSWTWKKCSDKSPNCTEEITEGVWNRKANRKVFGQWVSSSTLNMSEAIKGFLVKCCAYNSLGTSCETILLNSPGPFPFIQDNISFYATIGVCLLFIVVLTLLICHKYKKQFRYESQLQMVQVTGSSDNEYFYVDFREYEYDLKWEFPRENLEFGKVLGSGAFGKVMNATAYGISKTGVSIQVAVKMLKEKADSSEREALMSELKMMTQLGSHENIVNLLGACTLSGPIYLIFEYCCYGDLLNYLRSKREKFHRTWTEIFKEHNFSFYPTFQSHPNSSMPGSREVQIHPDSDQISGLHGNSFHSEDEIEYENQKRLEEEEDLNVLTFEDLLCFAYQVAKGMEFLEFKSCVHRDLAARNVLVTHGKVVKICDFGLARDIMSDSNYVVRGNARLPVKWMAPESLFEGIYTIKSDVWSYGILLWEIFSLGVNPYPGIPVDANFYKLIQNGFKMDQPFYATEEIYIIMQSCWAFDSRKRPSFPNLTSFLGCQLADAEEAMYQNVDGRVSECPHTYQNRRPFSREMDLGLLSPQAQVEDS
Dual specificity protein kinase CLK1 (Homo sapiens), sequence (P49759 whole entry, looked up): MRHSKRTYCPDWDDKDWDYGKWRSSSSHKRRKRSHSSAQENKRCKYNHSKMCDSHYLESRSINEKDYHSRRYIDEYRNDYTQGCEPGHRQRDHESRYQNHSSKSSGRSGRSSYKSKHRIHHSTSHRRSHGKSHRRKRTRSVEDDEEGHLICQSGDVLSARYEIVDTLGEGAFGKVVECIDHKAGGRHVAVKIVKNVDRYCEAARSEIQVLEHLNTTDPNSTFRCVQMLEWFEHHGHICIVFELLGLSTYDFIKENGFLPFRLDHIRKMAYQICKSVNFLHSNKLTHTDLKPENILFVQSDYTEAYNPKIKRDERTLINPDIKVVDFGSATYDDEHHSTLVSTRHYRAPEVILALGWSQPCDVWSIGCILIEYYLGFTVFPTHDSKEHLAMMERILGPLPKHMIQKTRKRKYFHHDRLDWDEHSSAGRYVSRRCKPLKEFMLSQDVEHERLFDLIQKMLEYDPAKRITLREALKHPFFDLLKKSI

Row | Ki [11] [nM] | remaining at 1 h [5] [%] | remaining at 1 h [12] [%] | Ki [13] [nM] | Ki [14] [nM] | remaining at 1 h [10] [%] | remaining at 1 h [15] [%] | SMILES | further results
1 | – | – | – | – | – | – | – | c1cncc(-c2cc3c(-c4cccc(N5CCCNCC5)n4)n[nH]c3cn2)c1 | Stability [1]: Stable; Stability [2]: Stable; Stability [3]: Stable; Stability [4]: Stable; Stability [5]: Stable; Stability [6]: Unstable; Stability [7]: Stable; Stability [8]: Stable; Stability [9]: Unstable; Stability [10]: Unstable
2 | 0.4 | 106 | 69 | 0.5 | 16 | 66 | 111 | Cc1cncc(-c2cn3c(-c4cccc(N5CCCNCC5)n4)ncc3cn2)n1 | –
3 | 0.008 to 0.02 | – | – | 0.018 to 0.03 | 0.11 | 101 | – | COc1ccc(-n2ncc3cnc(-c4cncc(C)n4)cc32)nc1N1CCC[C@H](N)C1 | inhibition [16]: Dose-dependent effect; inhibition [17]: Dose-dependent effect; inhibition [18]: Dose-dependent effect; inhibition at 5 min, 10 µM [19]: 49%; inhibition [20]: 82%; IC50 [21]: 500 to 510 nM; bioavailability [22]: 103%; inhibition [23]: Dose-dependent effect; clearance [24]: 34 mL/min/kg; inhibition [25]: 100%; inhibition [26]: 97%; inhibition at 5 min, 1 µM [27]: 37%; CLhep predicted [28]: 29 mL/min/kg; CLhep predicted [29]: 19 mL/min/kg
4 | 0.03 | 103 | 81 | 0.02 | 0.48 | 80 | 118 | Cc1cncc(-c2cc3c(cnn3-c3cccc(N4CCCNCC4)n3)nn2)n1 | –
5 | 0.02 | 87 | 67 | – | 0.2 | 69 | 86 | Cn1cc(-c2cc3c(-c4cccc(N5CCC[C@H](N)C5)n4)n[nH]c3cn2)cn1 | –
6 | – | 91 | 85 | – | – | 91 | 99 | Cc1cncc(-c2cc3c(cn2)cnn3-c2cccc(N3CCCNCC3)n2)n1 | IC50 [21]: 5000 nM; bioavailability [22]: 42%; clearance [24]: 28 mL/min/kg; CLhep predicted [28]: 32 mL/min/kg; CLhep predicted [29]: 27 mL/min/kg
7 | 0.04 to 0.041 | 103 | 40 | 0.02 to 0.022 | 0.11 to 0.17 | 59 | 97 | Cc1cncc(-c2cc3c(-c4cccc(N5CCCNCC5)n4)n[nH]c3cn2)n1 | efflux ratio [30]: 4.9; IC50 [21]: 220 nM; bioavailability [22]: 1.3%; clearance [24]: 65 mL/min/kg; solubility kinetic [31]: 38.5 µM (≈ 14.9 µg/mL); CLhep predicted [28]: 33 mL/min/kg; CLhep predicted [29]: 35 mL/min/kg; Papp A→B [32]: 3.2 ×10⁻⁶ cm/s
8 | 0.2 | 77 | 0.2 | – | 4 | 0.4 | 89 | CCn1cc(-c2cc3c(-c4cccc(N5CCOCC5)n4)n[nH]c3cn2)cn1 | –
9 | – | – | 56 | – | – | 42 | 120 | CN1CCN(c2cc3c(-c4cccc(N5CCNCC5)n4)n[nH]c3cn2)CC1=O | Stability [5]: 130%; bioavailability [22]: 1.4%; clearance [24]: 19 mL/min/kg; solubility kinetic [31]: 93.4 µM (≈ 36.7 µg/mL); CLhep predicted [28]: 31 mL/min/kg; CLhep predicted [29]: 18 mL/min/kg
10 | – | – | – | 0.07 | 0.23 | – | – | Cc1cncc(-c2cc3c(cn2)cnn3-c2cccc([C@H]3CNCCC3(F)F)n2)n1 | IC50 [21]: 1200 nM; bioavailability [22]: 57%; clearance [24]: 40 mL/min/kg; CLhep predicted [28]: 42 mL/min/kg; CLhep predicted [29]: 31 mL/min/kg
11 | 23 | 95 | 92 | 38 | 170 | 102 | 91 | Cn1cc(-c2cc3c(-c4cccc(N5CCC[C@H](N)C5)n4)nn(C)c3cn2)cn1 | –
12 | 0.8 | 98 | 104 | 0.5 | 9.6 | 102 | 100 | Cc1cncc(-c2cc3c(ccn3-c3cccc(N4CCCNCC4)n3)cn2)n1 | –
13 | – | – | – | – | – | – | – | c1cncc(-c2cc3c(-c4cccc(N5CCNCC5)n4)n[nH]c3cn2)c1 | Stability [1]: Stable; Stability [2]: Stable; Stability [3]: Stable; Stability [4]: Stable; Stability [5]: Stable; Stability [6]: Unstable; Stability [7]: Stable; Stability [8]: Stable; Stability [9]: Unstable; Stability [10]: Unstable
14 | 120 | 96 | 103 | 190 | 630 | 62 | 59 | Cn1nc(-c2cccc(N3CCC[C@H](N)C3)n2)c2cc(-c3cccnc3)ncc21 | –
15 | – | – | – | – | – | – | – | Cn1cc(-c2cc3c(-c4cccc(N5CCC[C@@H](N)C5)n4)n[nH]c3cn2)cn1 | Stability [1]: Stable; Stability [2]: Stable; Stability [3]: Stable; Stability [4]: Stable; Stability [5]: Stable; Stability [6]: Unstable; Stability [7]: Stable; Stability [8]: Stable; Stability [9]: Unstable; Stability [10]: Unstable
16 | 0.1 | 82 | 0.4 | 0.3 | 3 | 0.4 | 91 | CCn1cc(-c2cc3c(-c4cccc(N5CCN(C)CC5)n4)n[nH]c3cn2)cn1 | –
17 | – | 98 | 62 | – | – | 27 | 37 | Cc1ccc(-c2n[nH]c3cnc(-c4cccnc4)cc23)nc1N1CCC[C@H](N)C1 | efflux ratio [30]: 1.8; bioavailability [22]: 0%; clearance [24]: 21 mL/min/kg; solubility kinetic [31]: 81.2 µM (≈ 31.3 µg/mL); CLhep predicted [28]: 34 mL/min/kg; CLhep predicted [29]: 34 mL/min/kg; Papp A→B [32]: 3 ×10⁻⁶ cm/s
18 | – | – | – | – | – | – | – | Cc1ccc(-c2n[nH]c3cnc(-c4cccnc4)cc23)nc1N1CC[C@@H](N)C1 | Stability [1]: Stable; Stability [2]: Stable; Stability [3]: Stable; Stability [4]: Stable; Stability [5]: Stable; Stability [6]: Unstable; Stability [7]: Stable; Stability [8]: Stable; Stability [9]: Unstable; Stability [10]: Unstable
19 | 1 | 101 | 91 | 0.7 | 18 | 98 | 101 | Cc1cncc(-c2cc3c(-c4cccc(N5CCCNCC5)n4)nsc3cn2)n1 | –
20 | 0.2 | 91 | 100 | 0.4 | 7.9 | 101 | 84 | Cc1cncc(-c2ccc3cnn(-c4cccc(N5CCCNCC5)n4)c3c2)n1 | –
21 | – | – | – | – | – | – | – | CCn1cc(-c2cc3c(-c4cccc(N5CCC[C@@H](NC(C)=O)C5)n4)n[nH]c3cn2)cn1 | Drug metabolism [33]: Metabolite_Detected
22 | 270 | 108 | 103 | 450 | 7400 | 98 | 107 | Cc1cncc(-c2cc(F)c3cnn(-c4cccc(N5CCCNCC5)n4)c3c2)n1 | –
23 | 0.4 | 87 | 79 | 0.8 | 13 | 76 | 100 | Cc1cncc(-c2cnc3cnn(-c4cccc(N5CCCNCC5)n4)c3c2)n1 | –
24 | 0.02 | 93 | 48 | 0.04 | 0.2 | 26 | 34 | N[C@H]1CCCN(c2cccc(-c3n[nH]c4cnc(-c5cccnc5)cc34)n2)C1 | –
